Data: publication PMC7059204, “Gonadotropin-Releasing Hormone Receptor-Targeted Near-Infrared Fluorescence Probe for Specific Recognition and Localization of Peritoneal Metastases of Ovarian Cancer” (Frontiers in Oncology, 2020)

Columns and labels:
[1] = system: A2780 peritoneal metastases of ovarian cancer; assay type: in vivo, Balb/c nude mice
Description: The xenograft model for metastatic ovarian cancer was previously described ([18]). Female Balb/c nude mice (5–6 weeks old) were intraperitoneally injected with 1 × 10^7 A2780 cells. Tumors were allowed to grow for 2–3 weeks. The Institutional Animal Care and Use Committee of Fudan University approved all protocols presented in these studies.
For ex vivo GnRHa-ICG and ICG (0, 1, 10, and 20 μmol/L) imaging, fluorescence signals were taken using the IVIS Lumina K imaging system (PerkinElmer) and the clinically used Fluorescence Navigation system (the FloNavi, Optomedic Technique Inc., Guangdong, China). For intraperitoneal metastasis imaging, 0.72 μmol/kg of GnRHa-ICG or ICG was injected intraperitoneally in mice. Mice were sacrificed at the indicated times (n = 3 per group), and the abdominal cavities were exposed. Fluorescence images were obtained using the IVIS Lumina K imaging system (PerkinElmer) with a 780 nm excitation filter and an 845 nm emission filter. For ex vivo imaging, xenografts and organs were immediately dissected and analyzed after sacrifice.
Fluorescence signals were quantified as the average radiant efficiency ([p/s/cm^2/sr]/[μW/cm^2]) using the Living Image software. The fluorescence intensity was measured by drawing a region of interest (ROI) around the area. The tumor-to-background ratio (TBR) was calculated as the average fluorescence intensity of the tumor divided by that of the skeletal muscle or intestine.

A2780 cells [2] = assay: Fluorescence microscopy cell binding of GnRHa-ICG / ICG; assay type: cell-based, human; details: 60 min, 37°C, confocal microscopy
Procedure: (§1) The cells were placed in an 8-well chamber slide (Ibidi) and grown to ~60% confluence. A2780, CAOV-3, ES-2, and HeyA8 cells were incubated with 100 μmol/L GnRHa-FITC, and A2780, OSE, and H1299 cells were incubated with 20 μmol/L GnRHa-ICG or ICG (Sigma-Aldrich) for 60 min at 37°C. After incubation, the cells were washed with PBS, fixed in 4% paraformaldehyde, labeled with WGA Alexa Fluor 594 conjugate or WGA Alexa Fluor 488 conjugate (Invitrogen), and mounted with DAPI. These samples were analyzed using TCS SP5 confocal microscopy (Leica). For quantitative analysis, the mean fluorescence intensity was calculated using ImageJ software (version 1.50 g).

OSE cells = assay: as above; assay type: cell-based, human; details: 60 min, 37°C, confocal microscopy
Procedure: as §1

Balb/c nude mice = assay: In vivo toxicity test; details: 1.5 mg/kg intraperitoneal, n = 4
Procedure: The toxicity of GnRHa-ICG was determined in Balb/c nude mice (n = 4). Two groups received intraperitoneal injections of 1.5 mg/kg GnRHa-ICG and were followed for 2 and 96 h. The control group received vehicle alone. Blood draws were done to assess alanine transaminase (ALT), aspartate transaminase (AST), blood urea nitrogen (BUN), creatinine (CREA), white blood cells (WBC), and red blood cells (RBC). Tissues of the heart, lung, liver, spleen and kidney were harvested for HE staining.

A2780 cells [3] = assay: Cell viability assay (Cell Counting Kit-8); assay type: cell-based, human; details: 0, 1, 10, 100 μmol/L, 48 h exposure, CCK-8, 4 sub-wells
Procedure: A2780 cells were seeded in 96-well plate and grown to ~40% confluence. Cells were incubated with GnRHa-ICG at different concentrations: 0, 1, 10, and 100 μmol/L. Each group had 4 sub-wells. After exposure for 48 h, cell viabilities were assessed by Cell Counting Kit-8 assay (Dojindo). The absorbance at 450 nm (reference wavelength: 630 nm) was measured with a microplate reader.

[4] = system: A2780 and OSE cells (GnRHR-positive); assay: Flow cytometry blocking experiment with unlabeled GnRHa peptide; assay type: cell-based, human; details: pretreated with 100 μmol/L GnRHa peptide 10 min, then 2 μmol/L GnRHa-ICG 30 min, 37°C, triplicate
Procedure: A2780 and OSE cells were placed in 6-well plates, grown to ~70% confluence, and then incubated with GnRHa-FITC (20 μmol/L) or GnRHa-ICG/ICG (10 μmol/L) for 30 min at 37°C. For the blocking experiments, cells were pretreated with 100 μmol/L GnRHa peptide for 10 min and then incubated with 2 μmol/L GnRHa-ICG for 30 min at 37°C. Samples were measured on a CytoFLEX flow cytometer (Beckman Coulter) or a FACSAria flow cytometer (BD Biosciences). All samples were examined in triplicate. Data were analyzed using FlowJo software (version X 10.0.7).

[5] = 2 h post administration, 0.72 μmol/kg intraperitoneal, IVIS Lumina K, ex 780/em 845 nm, mean ± SD, n = 3 per group
[6] = 20 μmol/L, mean fluorescence intensity by ImageJ

| course of tumor fluorescence intensity ([1]; mouse, in vivo) | Compound | tumor-to-intestine ratio [1, 5] | tumor-to-muscle ratio [1, 5] | fluorescence in control (normal, non-tumor) mice ([1]; mouse, in vivo, ip) | fluorescence signal, times lower than with incubation of GnRHa-ICG (A2780 cells [2]; 20 μM each) [times] | fluorescence signal, times lower than with incubation of GnRHa-ICG (OSE cells; 20 μM each) [times] | course of tumor-to-background ratio (TBR) over time ([1]; between 2 and 48 h, intraperitoneal) | ex vivo imaging of the brain (binding to hypothalamic GnRHR) ([1]; mouse, in vivo) | fluorescence in benign retroperitoneal lymph nodes versus tumor ([1]; mouse, in vivo) | time at which fluorescence signal of A2780 xenografts peaked in intensity ([1]; mouse, in vivo, ip) [h] | time for which tumor fluorescence intensities were maintained ([1]; mouse, in vivo, ip) | time of highest fluorescence density in the liver ([1]; mouse, in vivo, ip) [h] | fluorescence intensity, fold higher than in H1299 cells (GnRHR-negative) (A2780 cells [2]; [6]) [fold] | fluorescence intensity, fold higher than in H1299 cells (GnRHR-negative) (OSE cells; [6]) [fold] | ALT, AST, CREA, WBC and RBC, control versus test groups (Balb/c nude mice; 2 and 96 h) | BUN (Balb/c nude mice; 96 h after injection) | histological observation of main organs (heart, lung, liver, spleen, kidney; HE staining) (Balb/c nude mice) | cell viability after exposure (tumorigenic potential) (A2780 cells [3]) | effect of competition with unlabeled GnRHa on fluorescence intensity [4] |
| --- | --- | --- | --- | --- | --- | --- | --- | --- | --- | --- | --- | --- | --- | --- | --- | --- | --- | --- | --- |
| decreased quickly within 48 h | CC1(C)C(/C=C/C=C/C=C/C=C2\N(CCCCS(=O)(=O)O)c3ccc4ccccc4c3C2(C)C)=[N+](CCCCS(=O)(=O)[O-])c2ccc3ccccc3c21 [ICG, Indocyanine green, reference compound] | 0.57 ± 0.06 | 4.60 ± 0.50 | high fluorescence signals | 2.61 | 2.25 |  |  |  |  |  |  |  |  |  |  |  |  |  |
|  | D-2-Nal-D-4-Cl-Phe-D-3-Pal-Ser-Tyr-D-Cit-Leu-Arg-Pro-D-Ala-NH2 [GnRHa-ICG] |  |  | did not show fluorescence signals |  |  | stable | did not show fluorescence signals | fewer fluorescence signals | 2 | up to 48 h | 24 | 1.56 | 1.34 | no significant difference | slight decrease | did not present any obvious damage | does not increase cell viability | partial reduction in fluorescence intensity |
